Measured values from patent US8323708B2, “Poultry meat and eggs comprising beneficial fatty acids” (Monsanto Technology LLC, priority 2009, dated 2012).

What was measured:
[1] = 21 day broiler study: long chain fatty acid composition of skinless breast meat; format: in vivo, broiler chickens; details: day 21-42
Experimental: (§1) A 21 day study was conducted to determine whether broiler chickens fed a diet containing SDA could produce meat with elevated levels of omega-3 fatty acids including EPA and DHA.
(§2) Fifty pens of four birds per pen were used. There were 25 pens of males and 25 pens of females. Five pens of males and five pens of females were each fed one of five treatment diets from day 21 to 42 days of age. Prior to day 21 all birds were fed a standard 22% protein starter diet formulated to meet NRC (1994) nutrient requirements (shown in Table 16 as “S” diet). The feed prepared was feed as a crumble.
(§3) The test diets were prepared and fed in mash form. All broilers had ad libitum access to feed and water for the duration of the 21 day study. The composition of the diets (Table 4) and premixes (Table 5) are provided below.
(§4) To help prevent oxidation of the fatty acids, 0.05% ethoxyquin (Rendox) was added to each premix. Premixes were manufactured within 3 days of arrival of ethyl esters. To limit oxidation associated with storage, diets were manufactured once and stored in a refrigerated cooler at 4° C. during the duration of the study.
(§5) For male pens only, four out of the five pens were randomly selected. Two birds from each of these pens were randomly selected (eights birds per treatment). The right and left thigh and right and left breast from these 40 birds were bagged and labeled and frozen. The right breast and thigh samples were analyzed for shelf life stability and the left skinless breast and left boneless, skinless thigh from these same birds were analyzed for fatty acid composition.

[2] = 21 day broiler study: long chain fatty acid composition of thigh meat; format: in vivo, broiler chickens; details: day 21-42; for ALA (C18:3n-3) / DHA (C22:6n-3) / DPA (C22:5 n-3) / EPA (C20:5n-3) / Omega 6/Omega 3 ratio / SDA (C18:4n-3) / Total omega 3's: boneless skinless thigh meat
Experimental: as §1, §2, §3, §4, §5

[3] = 42 day broiler study: fatty acid composition of breast meat; format: in vivo, broiler chickens (Ross x Ross 308)
Experimental: (§6) A 42 day study was conducted to determine whether broiler chickens fed a diet containing SDA could produce meat with elevated levels of omega-3 fatty acids as compared to chickens fed diets containing DHA and fish oil.
(§7) Fifty six pens of 25 male birds (Ross×Ross 308) per pen were used. Day old birds were obtained and immediately placed in floor pens containing (used) pine wood shavings, hanging tube feeders and nipple-waterers or plassons. Eight pens were each fed one of seven treatments for 42 days. The experiment was divided into four growth phases (0-7 days, 7-21 days, 21-35 days, and 35-42 days). The experimental diets were crumbled for the first two phases (0-21 days) and pelleted thereafter.
(§8) Diets consisted of 93% base mix (Table 10) plus 7% Test Oil Mix (Table 11). The diets supplied 3008, 3083, 3183 and 3208 kcal/kg of metabolizable energy for the pre-starter, starter, grower and finisher phases, respectively.
(§9) A randomized block design was used. Treatments were randomly assigned to pens such that each of the seven treatments was replicated 8 times (8 pens with each pen containing 25 birds).
(§10) On day 42, following a 10-hour period of feed withdrawal, 8 birds per pen (64 birds/treatment; 7 treatments; 448 birds total) were randomly selected and processed using commercial processing procedures. Carcasses were cut-up and de-boned at 4 hours postmortem. Carcass and parts yields were calculated and meat samples (breast and thigh) were collected for meat quality, fatty acid analysis, and sensory evaluation.

[4] = 42 day broiler study: fatty acid composition of thigh meat and attached skin; format: in vivo, broiler chickens (Ross x Ross 308)
Experimental: as §6, §7, §8, §9, §10

[5] = Laying hen study: long chain fatty acid composition of eggs; format: in vivo, laying hens; details: total egg
Experimental: A study was conducted to determine whether laying hens fed a diet enriched in stearidonic acid could produce eggs with elevated levels of beneficial omega-3 fatty acids including EPA and DHA. Mature laying hens […] were randomly allotted to seven dietary treatments (16 hens/treatment) and were fed diets containing the following levels of n-3 fatty acids as described in Table 28 for four weeks. Sixteen birds were given each treatment. Four birds were randomly selected out of the 16 per treatment to obtain eggs during week 4 for fatty acid composition. […] The laying hens had ad libitum access to feed and water. The composition of the diets (Table 29) and premixes (Table 30) are provided below. To help prevent oxidation of the fatty acids, 0.05% ethoxyquin (Rendox) was added to each premix. Premixes were manufactured within 3 days of arrival of ethyl esters. To limit the oxidation associated with storage, diets were manufactured once and stored in a refrigerated cooler at 4° C. during the duration of the study. Eggs collected during […] (days 22-28) were maintained under refrigerated conditions until all eggs for that week were collected. Eggs were sorted by hen and treatment. Two eggs per hen from 4 hens per treatment were taken. The two eggs were weighed individually, cracked and the shell weighed. The difference between fresh egg and shell represented liquid egg weight and served as the basis for further calculations. The liquid fraction from each of the two eggs per hen were combined in a sample cup and homogenized. Samples were analyzed for fatty acids by gas chromatography.

[6] = 0.27% in feed (as ethyl esters), day 0-42
[7] = thigh meat and attached skin, 0.27% in feed (as ethyl esters), day 0-42

## CC/C=C\C/C=C\C/C=C\C/C=C\C/C=C\C/C=C\CCC(=O)OCC [DHA Ethyl Ester]
[1]; ethyl ester 0.163% of diet
  ALA (C18:3n-3): 10 mg/100 g
  DHA (C22:6n-3): 55.0 mg/100 g
  DPA (C22:5 n-3): 10 mg/100 g
  EPA (C20:5n-3): 10 mg/100 g
  Omega 6/Omega 3 ratio: 2.9
  Total omega 3's: 85.0 mg/100 g
[1]; ethyl ester 0.326% of diet
  ALA (C18:3n-3): 10 mg/100 g
  DHA (C22:6n-3): 80 mg/100 g
  DPA (C22:5 n-3): 10 mg/100 g
  EPA (C20:5n-3): 10 mg/100 g
  Omega 6/Omega 3 ratio: 1.9
  Total omega 3's: 110 mg/100 g
[2]; ethyl ester 0.163% of diet
  ALA (C18:3n-3): 70 mg/100 g
  DHA (C22:6n-3): 67.5 mg/100 g
  DPA (C22:5 n-3): 15 mg/100 g
  EPA (C20:5n-3): 10 mg/100 g
  Omega 6/Omega 3 ratio: 8.4
  SDA (C18:4n-3): 10 mg/100 g
  Total omega 3's: 172.5 mg/100 g
[2]; ethyl ester 0.326% of diet
  ALA (C18:3n-3): 75 mg/100 g
  DHA (C22:6n-3): 125 mg/100 g
  DPA (C22:5 n-3): 20 mg/100 g
  EPA (C20:5n-3): 27.5 mg/100 g
  Omega 6/Omega 3 ratio: 5.7
  SDA (C18:4n-3): 10 mg/100 g
  Total omega 3's: 257.5 mg/100 g
[2]; supplemented birds
  total omega 3 fatty acids in thigh meat relative to breast meat: 2 times
[3]; [6]
  ARA C20:4n-6: 3.01 % of fatty acids
  C16:0: 21.82 % of fatty acids
  C16:1: 3.09 % of fatty acids
  C18:0: 8.76 % of fatty acids
  C18:1: 30.41 % of fatty acids
  C18:2: 22.94 % of fatty acids
  C22:4n-6: 0.53 % of fatty acids
  DHA (C22:6n-3): 2.78 % of fatty acids
  DPA (C22:5 n-3): 0.48 % of fatty acids
  EPA (C20:5n-3): 0.16 % of fatty acids
  SDA (C18:4n-3): 0.59 % of fatty acids
  Total C18:3: 0.66 % of fatty acids
[3]; % of fatty acids, 0.27% in feed
  Total SDA, EPA, DPA and DHA concentrations: 4.00%
[4]; [7]
  ARA C20:4n-6: 0.81 % of fatty acids
  C16:0: 21.71 % of fatty acids
  C16:1: 4.48 % of fatty acids
  C18:0: 6.31 % of fatty acids
  C18:1: 35.94 % of fatty acids
  C18:2: 25.99 % of fatty acids
  C20:4n-3: 0.03 % of fatty acids
  C22:4n-6: 0.16 % of fatty acids
  DHA (C22:6n-3): 0.73 % of fatty acids
  DPA (C22:5 n-3): 0.14 % of fatty acids
  EPA (C20:5n-3): 0.11 % of fatty acids
  SDA (C18:4n-3): 0.24 % of fatty acids
  Total C18:3: 1.03 % of fatty acids
[4]; thigh meat, 0.27% in feed
  Total SDA, EPA, DPA and DHA concentrations: 1.2%
[5]; 0.163% of diet
  ALA (C18:3n-3): 40 mg/100 g
  DHA (C22:6n-3): 177.5 mg/100 g
  DPA (C22:5 n-3): 10 mg/100 g
  Omega 6/Omega 3 ratio: 5.7
  Total omega 3's: 227.5 mg/100 g
[5]; 0.326% of diet
  ALA (C18:3n-3): 40 mg/100 g
  DHA (C22:6n-3): 247.5 mg/100 g
  DPA (C22:5 n-3): 10 mg/100 g
  EPA (C20:5n-3): 10 mg/100 g
  Omega 6/Omega 3 ratio: 3.8
  Total omega 3's: 307.5 mg/100 g

## CC/C=C\C/C=C\C/C=C\C/C=C\CCCCC(=O)OCC [SDA Ethyl Ester]
[1]; ethyl ester 0.416% of diet
  ALA (C18:3n-3): 10 mg/100 g
  DHA (C22:6n-3): 10 mg/100 g
  DPA (C22:5 n-3): 22.5 mg/100 g
  EPA (C20:5n-3): 20 mg/100 g
  Omega 6/Omega 3 ratio: 2.9
  SDA (C18:4n-3): 22.5 mg/100 g
  Total omega 3's: 85 mg/100 g
[1]; ethyl ester 0.832% of diet
  ALA (C18:3n-3): 10 mg/100 g
  DHA (C22:6n-3): 10 mg/100 g
  DPA (C22:5 n-3): 30 mg/100 g
  EPA (C20:5n-3): 27.5 mg/100 g
  Omega 6/Omega 3 ratio: 2.0
  SDA (C18:4n-3): 40 mg/100 g
  Total omega 3's: 117.5 mg/100 g
[2]; ethyl ester 0.416% of diet
  ALA (C18:3n-3): 82.5 mg/100 g
  DHA (C22:6n-3): 20 mg/100 g
  DPA (C22:5 n-3): 37.5 mg/100 g
  EPA (C20:5n-3): 30 mg/100 g
  Omega 6/Omega 3 ratio: 4.4
  SDA (C18:4n-3): 187.5 mg/100 g
  Total omega 3's: 362.5 mg/100 g
[2]; ethyl ester 0.832% of diet
  ALA (C18:3n-3): 86.7 mg/100 g
  DHA (C22:6n-3): 20 mg/100 g
  DPA (C22:5 n-3): 50 mg/100 g
  EPA (C20:5n-3): 50 mg/100 g
  Omega 6/Omega 3 ratio: 2.7
  SDA (C18:4n-3): 386.7 mg/100 g
  Total omega 3's: 593.3 mg/100 g
[5]; 0.416% of diet
  ALA (C18:3n-3): 42.5 mg/100 g
  DHA (C22:6n-3): 150 mg/100 g
  DPA (C22:5 n-3): 35 mg/100 g
  EPA (C20:5n-3): 10 mg/100 g
  Omega 6/Omega 3 ratio: 5.0
  SDA (C18:4n-3): 10 mg/100 g
  Total omega 3's: 247.5 mg/100 g
[5]; 0.832% of diet
  ALA (C18:3n-3): 55 mg/100 g
  DHA (C22:6n-3): 182.5 mg/100 g
  DPA (C22:5 n-3): 60 mg/100 g
  EPA (C20:5n-3): 22.5 mg/100 g
  Omega 6/Omega 3 ratio: 3.7
  SDA (C18:4n-3): 25 mg/100 g
  Total omega 3's: 360 mg/100 g
